Assay results: patent US5288905A, “Glycyl urea derivatives as anti-convulsants” (G. D. Searle & Co., priority 1991, dated 1994)

How the values were obtained:
mice [1] = assay: Prevention of bicuculline (BIC)-induced convulsions in mice; format: in vivo, male Swiss albino mice; settings: Mus musculus, po; 30 mg/kg orally; bicuculline 0.6 mg/kg intravenously; four groups of five animals; read-out: Percentage of Mice Protected from Bicuculline
Experimental: (§1) Treatment of a mammal afflicted by or susceptible to certain CNS disorders is accomplished by administration of a therapeutically-effective amount of a compound of Formula I. In particular, Compounds #1-11 of Table II were evaluated by in vitro and in vivo animal model assays to determine the pharmacological properties of such compounds and their likely suitability for use as therapeutic drugs in humans. These biological assays, as described below, consisted of prevention of induced convulsions in mice, determination of acute toxicity in mice and animal behavior assays. Except as otherwise specified, the animals used in the in vivo tests were male Swiss albino mice weight 22 to 33 g [CDl, Charles River, France], housed in groups of 10 on a 12-hour dark-light cycle for at least one week before use and fasted overnight prior to testing.
(§2) Compounds of Formula I were evaluated as inhibitors of convulsions and death induced by different convulsant agents: 3-mercaptopropionic acid (3-MPA; 120 mg/kg subcutaneously), bicuculline (BIC, 0.6 mg/kg intravenously), pentylenetetrazole (PTZ, 55 mg/kg intravenously) and supramaximal electroconvulsive shocks (ECS evoked by a current intensity of 48 mA, 50 Hz. 0.2 sec duration, 10 msec square pulse, corneal electrodes) [W. van Dorsser, D. Barris, A. Cordi and J. Roba, Arch. Int. Pharmacodyn., 266, 239-249 (1983)]. The compounds of the invention were administered orally at a dosage of either 100 mg/kg or 30 mg/kg in a volume of 10 ml/kg each to 5 mice. Tonic convulsions and the number of dead mice were noted. Results are given in Table III as a score which represents the total number of mice protected from convulsions induced by 3-mercaptopropionic acid at dose of 100 mg/kg for two groups of five animals, or the percentage of mice protected from convulsions induced by bicuculline at a dose of 30 mg/kg for four groups of five animals.

mice [2] = test system: mice; set-up: species or system male Swiss albino mice; settings: mouse, in vivo, po
Experimental: as §1
Behavioral effects of compounds of the invention on animals were determined by observations taken at 5 to 6 hours and at 24 hours after administration of compounds in the acute toxicity studies. Determinations were made based on a method derived from that of S. Irwin [See R. A. Turner, Screening Methods in Pharmacology, Chapter 3, pages 22-34, Academic Press, N.Y. (1965)]. If an anomaly were noted, the observation was extended and smaller doses were tested. Possible types of behavior to be observed are as follows: analgesia (AAG), convulsions (CON), depression (DEP), exophthalmia (EOP), excitation (EXC), hyperalgesia (HAG), hypothermia (ATH), hypotonia (ATN), piloerection (PIE), palpebral ptosis (PTO), reduction of the pinna reflux (RPI), reduction of the rearing reflex (RRE), reduction of the flexion reflex (RRF), sedation (SED), tremors (TRE), cyanosis (CYA), diarrhea (DIA), increase of the pinna reflex (HPI), increase of the flexion reflex (HRF), dyspnea (DYS), toxic (TOX), zero ("0") means no effect. Behaviors observed are reported in Table V by numbers which represent the dose at which the behavior is observed.

mice [3] = assay: Prevention of 3-mercaptopropionic acid (3-MPA)-induced convulsions in mice; format: in vivo, male Swiss albino mice; settings: for Number of Mice Protected From Convulsions Induced by 3-MPA at 100 mg/kg, 30 min interval / Number of Mice Protected From Convulsions Induced by 3-MPA at 100 mg/kg, 2 hr interval: 100 mg/kg orally, 3-MPA 120 mg/kg subcutaneously, two groups of five animals; for Number of Mice Protected From Convulsions Induced by 3-MPA at 100 mg/kg, 30 min interval: 30 min before convulsions induced; for Number of Mice Protected From Convulsions Induced by 3-MPA at 100 mg/kg, 2 hr interval: 2 hr before convulsions induced
Experimental: as §1, §2
(§3) Based upon data generated from the previously-described anti-convulsant experiments, ED50 values were calculated at which Compound #6 inhibits convulsions induced by the convulsant agents listed in Table IV.

[4] = Acute toxicity in mice after oral administration; set-up: species or system male Swiss albino mice; settings: mouse, in vivo, mortality over 15 days
Experimental: as §1
The acute toxicity of compounds of the invention was determined after oral administration of the test compound to mice. Compound to be tested was suspended in a 1% tragacanth gum mucilage, and was administered by means of an intragastric probe to a group of three male mice. Doses used in the test were determined by observing toxic effects on the mice, which doses varied from 3,000 mg/kg down to about 3 mg/kg. The mortality was recorded over a period of 15 days. The LD50 results reported in Table V were calculated according to published methods [Lichtfield and Wilcoxon, J. Pharmacol. Exp. Ther., 96, 99 (1949)] and expressed in mg of test compound per kilogram of mouse body weight.

mice [5] = assay: Inhibition of convulsions induced by supramaximal electroconvulsive shocks (ECS) in mice; format: in vivo, male Swiss albino mice; settings: Mus musculus, po; ECS 48 mA, 50 Hz, 0.2 sec, corneal electrodes; compound orally; read-out: Inhibition of Convulsions by Cpd. #6 (ED50), ECS
Experimental: (§4) Treatment of a mammal afflicted by or susceptible to certain CNS disorders is accomplished by administration of a therapeutically-effective amount of a compound of Formula I. In particular, Compounds #1-11 of Table II were evaluated by in vitro and in vivo animal model assays to determine the pharmacological properties of such compounds and their likely suitability for use as therapeutic drugs in humans. These biological assays, as described below, consisted of prevention of induced convulsions in mice, determination of acute toxicity in mice and animal behavior assays. […]
(§5) Compounds of Formula I were evaluated as inhibitors of convulsions and death induced by different convulsant agents: 3-mercaptopropionic acid (3-MPA; 120 mg/kg subcutaneously), bicuculline (BIC, 0.6 mg/kg intravenously), pentylenetetrazole (PTZ, 55 mg/kg intravenously) and supramaximal electroconvulsive shocks (ECS evoked by a current intensity of 48 mA, 50 Hz. 0.2 sec duration, 10 msec square pulse, corneal electrodes) [W. van Dorsser, D. Barris, A. Cordi and J. Roba, Arch. […]
as §3

rat frontal cortex = assay: Chronic focal epilepsy assay (cobalt powder on rat frontal cortex, EEG spike activity); format: in vivo; settings: ip, intraperitoneal, cobalt-induced spikes, read-out: threshold dose for inhibiting spike activities
Experimental: In a model of chronic focal epilepsy where cobalt powder is placed on rat frontal cortex, the animals develop, after several days, chronic expression of afterdischarge-like spike activity which can be recorded by EEG. Compound #6 has, when administered by intraperitoneal route, a threshold dose of 200 mg/kg for inhibiting these spike activities with the effect being observed from 30 to 90 minutes.

mice [6] = assay: Inhibition of pentylenetetrazole (PTZ)-induced convulsions in mice; format: in vivo, male Swiss albino mice; settings: Mus musculus, po; convulsant PTZ 55 mg/kg intravenously; compound orally; read-out: Inhibition of Convulsions by Cpd. #6 (ED50), PZT
Experimental: as §4, §5, §3

mice [7] = assay: 5HTP-induced head twitch in mice; format: in vivo, male Swiss albino mice; settings: Mus musculus, po, 2 hours before 5HTP challenge (10 mg/kg i.p.) after nialamide 50 mg/kg i.p.; read-out: ED50 (inhibition of 5HTP-induced head twitches)
Experimental: as §1
Compound #6 was evaluated for inhibition of head twitches produced in mice by administration of L-5-hydroxytryptophan (5HTP, 10 mg/kg intraperitoneously) after nialamide treatment (50 mg/kg intraperitoneal, 22 hours before the test). The head twitches were counted for 45 min. starting 15 min. after 5HTP administration. [E. Friedmann et al.; Europ. J. Pharmocol., 89, 69-76 (1983)].

Row | SMILES | responders at 30 mg/kg (mice [1]) [%] | Behavior (dose at which the behavior is observed : behavior) (mice [2]) | Number of Mice Protected From Convulsions Induced by 3-MPA at 100 mg/kg, 30 min interval (mice [3]) [mice] | LD50 at 360 h [4] [mg/kg] | Number of Mice Protected From Convulsions Induced by 3-MPA at 100 mg/kg, 2 hr interval (mice [3]) [mice] | ED50 (mice [5]) [mg/kg] | minimal effective dose (rat frontal cortex) [mg/kg] | ED50 (mice [6]) [mg/kg] | ED50 (mice [3]; Mus musculus, po, convulsant 3-MPA 120 mg/kg subcutaneously, compound orally, read-out: Inhibition of Convulsions by Cpd. #6 (ED50), 3-MPA) [mg/kg] | ED50 (mice [7]) [mg/kg]
1 | CCCCCNC(=O)NC(=O)CNCCc1ccccc1 [Compound 7, 1-pentyl-3-[2-(2-phenylethyl)amino-1-oxoethyl]urea] | 25 | 1000:SED | 1 | > 3000 |  |  |  |  |  | 
2 | O=C(CNCCc1ccccc1)NC(=O)NCCc1ccccc1 [Compound 5, 1-(2-phenylethyl)-3-[2-(2-phenylethyl)amino-1-oxoethyl]urea] | 45 | 3000:TOX, DEP | 6 | 1750 | 1 |  |  |  |  | 
3 | CNC(=O)NC(=O)CNC(c1ccccc1)c1ccccc1 [Compound 10, 1-methyl-3-(2-diphenylmethylamino-1-oxoethyl)urea] |  |  | 1 |  |  |  |  |  |  | 
4 | CCCCCCCCNCC(=O)NC(=O)NCCCCCCCC [Compound 4, 1-octyl-3-(2-octylamino-1-oxoethyl)urea] | 35 | 3000:0 mg/kg | 4 | > 3000 | 3 |  |  |  |  | 
5 | CCCCCCCCNC(=O)NC(=O)CNCCc1ccccc1 [Compound 3, 1-octyl-3-[2-(2-phenylethyl)amino-1-oxoethyl]urea] | 55 | 3000:SED, ATN | 6 | > 3000 | 3 |  |  |  |  | 
6 | O=C(CNC(c1ccccc1)c1ccccc1)NC(=O)NCCc1ccccc1 [Compound 11, 1-(2-phenylethyl)-3-(2-diphenylmethylamino-1-oxoethyl)urea] |  |  | 0 |  |  |  |  |  |  | 
7 | CCCCCCCCNC(=O)NC(=O)CNCCCCC [Compound 1, 1-octyl-3-(2-pentylamino-1-oxoethyl)urea] | 35 | 1000:0 mg/kg | 0 | > 1000 |  |  |  |  |  | 
8 | CCCCCCCCNCC(=O)NC(=O)NCCCCC [Compound 9, 1-pentyl-3-(2-octylamino-1-oxoethyl)urea] | 35 | 1000:0 mg/kg | 7 | > 1000 | 4 |  |  |  |  | 
9 | CCCCCNCC(=O)NC(=O)NCCCCC [Compound 8, 1-pentyl-3-(2-pentylamino-1-oxoethyl)urea] | 40 |  | 0 | > 3000 |  |  |  |  |  | 
10 | CCCCCNCC(=O)NC(=O)NCCc1ccccc1 [Compound 2, 1-(2-phenylethyl)-3-(2-pentylamino-1-oxoethyl)urea] | 25 | 1000:SED, RPI, RRE | 3 | > 1000 |  |  |  |  |  | 
11 | CCCCCCCCNCC(=O)NC(=O)NCCc1ccccc1 [Compound 6, 1-(2-phenylethyl)-3-(2-octylamino-1-oxoethyl)urea] | 35 | 1000:SED, ATN | 9 | > 3000 | 9 | 60 | 200 | 56 | 16 | 200
